Test results taken from patent US20060198882A1, “Stable liposomes or micelles comprising a sphinolipid and a peg-lipopolymer” (priority 2003, published 2006).

System: C-26 colon carcinoma cells
Assay: Cell uptake and metabolism of radiolabelled ceramide assemblies
Assay type: cell-based, human
Method: C-26 colon carcinoma cells were seeded into six-well plates at density of 2.5×10^5 in 2 ml of complete RPMI-1640 medium supplemented with 10% FCS, antibiotics, and glutamine. The cells were allowed to grow for 48 hr and replaced with 1 ml of complete serum containing medium. […] The radioactive doses of ceramides and lipid (dpm/μmole) are described in Table 2C. After these predefined time periods cells were tripsinized and washed twice with PBS. Cell lipids, lipids of the medium and lipids of the wash fraction were extracted by the Bligh and Dyer procedure [E. G. Bligh and W. J. Dyer, Can. J. Biochem. Physiol. 37:[…] (1959)]. Briefly, chloroform, methanol, and DDW were added to the cells at a final ratio of 1:2:1 (by vol.), and incubated for 10 min at 45° C. Then the mixtures were centrifuged at […] for 5 min. The supernatants containing the lipids were taken and chloroform and DDW were added in order to reach the final volume ratio of chloroform: methanol:DDW of 1:1:1. Two phases were formed and well separated after centrifugation. The water/methanol rich upper phase was removed while the chloroform-rich lower phase which contains >99% of the lipids was washed once with synthetic upper phase composed of chloroform:methanol:DDW (6:94:96, by volume). The lipid-containing lower phase was dried under nitrogen stream and redissolved in chloroform: methanol (2:1, by vol.) ready for analysis.
The lipid mixture was applied to silica gel TLC plates and developed in the solvent system of chloroform:methanol: DDW (84:16:1,5, by vol.) and detected by Copper sulfate reagent. The TLC plates were photographed by the Fluor-S-Multyimiger (Bio-Rad, Hercules, Calif.). Migration of lipids from cells extracts, medium, and wash fractions was visualized in comparison to a different well established commercial markers. The retention factor RF (defined as the distance traveled by the compound divided by the distance traveled by the solvent) of various molecules are as follows: SPM-0.04, EPC or HSPC-0.1, DOTAP: 0.24, GalCer: 0.29-0.38, GluCer: 0.4, C6 Cer: 0.68, and C16 Cer: […].
The TLC plates were then subjected overnight to imaging plate and the radioactivity was measured by Bio-Imaging analyzer (FUJI BAS 1000, Japan) then the radioactive bands were scraped from the TLC plate, placed into the test tube containing scintillation medium Opti-Fluor (Packard Bioscience, Groningen, Netherlands) and the radioactivity was counted by a β-counter.
The uptake and metabolism of radiolabelled liposomal or free C6Cer were studied in C-26 colon carcinoma cells. Cells were incubated with either free ^14C6Cer (in ethanol) or with liposomal C6Cer. Total lipids were extracted and the level of uptake and metabolites were determined from cells and growth medium as described in Materials and Methods.

**Q.** With `CCCCCCCCCCCCC/C=C/[C@@H](O)[C@H](CO)NC(=O)CCCCC` [C6Cer, N-hexanoyl-D-erythro-sphingosine] as the compound, how does the “Cell uptake (%) of ^14C6Cer” value (2 hr) read?
**A.** The value was 39.9%.

**Q.** And the “Cell uptake (nmole) of ^14C6Cer” value (2 hr, 20 μM ceramide)?
**A.** Its value is 13.7 nmol.

**Q.** What about the “Cell uptake (%) of ^14C6Cer” value (24 hr) of the same compound?
**A.** Its value is 93.7%.

**Q.** What about the “Cell uptake (nmole) of ^14C6Cer” value (24 hr) of the same compound?
**A.** The value was 34.5 nmol.

**Q.** And the “Cell uptake (%) of ^14C6Cer” value (72 hr)?
**A.** Its value is 72%.

**Q.** What about the “Cell uptake (nmole) of ^14C6Cer” value (72 hr) of the same compound?
**A.** Its value is 24.5 nmol.
